Results reported in publication PMC10712727, “Safety, Tolerability, and Pharmacokinetics of Senaparib, a Novel PARP1/2 Inhibitor, in Chinese Patients With Advanced Solid Tumors: A Phase I Trial” (The Oncologist, 2023).

Tested on: patients with advanced solid tumors
Test: Safety: treatment-emergent and senaparib-related adverse events graded per NCI CTCAE v4.03
Format: in vivo
Settings: for ALT increased, All / ALT increased, Gr≥3 / AST increased, All / AST increased, Gr≥3 / Abdominal distension, All / Abdominal distension, Gr≥3 / Anemia (incl. hemoglobin decreased), All / Anemia (incl. hemoglobin decreased), Gr≥3 / Appetite decreased, All / Appetite decreased, Gr≥3 / Asthenia, All / Asthenia, Gr≥3 / Blood bilirubin increased, All / Blood bilirubin increased, Gr≥3 / Blood creatinine increased, All / Blood creatinine increased, Gr≥3 / Hypokalemia, All / Hypokalemia, Gr≥3 / Hyponatremia, All / Hyponatremia, Gr≥3 / Nausea, All / Nausea, Gr≥3 / Neutrophil count decreased, All / Neutrophil count decreased, Gr≥3 / Pain in extremity, All / Pain in extremity, Gr≥3 / Platelet count decreased, All / Platelet count decreased, Gr≥3 / Protein in urine, All / Protein in urine, Gr≥3 / Vomiting, All / Vomiting, Gr≥3 / WBC decreased, All / WBC decreased, Gr≥3: TEAE
Protocol: This phase I, open-label, multicenter, dose-escalation, and dose-expansion study was conducted at three national clinical institutions in China. […] At baseline, all patients enrolled in the dose-escalation phase had to have at least one evaluable lesion, and those in the dose-expansion period had to have at least one measurable lesion, according to Response Evaluation Criteria in Solid Tumors version 1.1 (RECIST v1.1).[16] Entry to the dose-expansion cohort required the presence of a BRCA mutation, with the exception of patients with ovarian carcinoma, fallopian tube carcinoma, and primary peritoneal carcinoma. Full study eligibility criteria are provided in Supplementary Table S1.
Dose escalation was conducted using a modified Fibonacci 3 + 3 method (Supplementary Fig. S1).[17] Patients were administered oral senaparib from a planned starting dose of 2 mg once daily (QD), with preliminary dose escalation to 120 mg via nine dose groups, in order of their entry into the study. At a given dose level, each patient received a single dose of senaparib followed by a 7-day washout period. They then entered a continuous dosing period to confirm the safety and PK profile, in which they received senaparib QD from day 1 to day 21 of each 3-week cycle. Progression to the next higher dose required approval from the Data Safety Monitoring Committee (DSMC) upon review of the safety and PK data of the previous dose. A 50-mg twice-daily (BID) dosing group was added (planned enrollment, n = 6 patients) based on a DSMC review of the safety, PK, and efficacy analysis of the completed QD dose groups in the phase I clinical trial of senaparib dose escalation in Australia (NCT03507543), which commenced prior to the start of this trial.
The dose-expansion period included 3 populations: dose groups in which at least one patient achieved complete response (CR) or partial response (PR) per RECIST v1.1[16] and 1 dose group higher (evaluated for safety), as well as the dose group at the maximum tolerated dose (MTD)/recommended phase II dose (RP2D). Each of these groups included those patients in the respective dose-escalation group plus a planned additional 10 patients (approximately 20 patients in the MTD/RP2D group) with BRCA^mut+ solid tumors (ovarian, breast, or prostate cancer were preferred, and ovarian cancer could be BRCA wild type). Patients received senaparib monotherapy orally QD or BID (50-mg dose only) over each 3-week cycle until disease progression or unacceptable toxicity.
DLTs were predefined toxicities (Supplementary Table S2) recorded over the 7 days following the single-dose administration of senaparib and during the first treatment cycle (day 1-day 21) for each dose group in the dose-escalation period only. The MTD was defined as the maximum dose at which ≤1/6 patients experienced a DLT. Senaparib PK parameters were derived from blood samples collected from patients after the single administration, and at regular intervals during the first cycle of the dose-escalation and dose-expansion periods. Plasma concentrations of senaparib were determined using high-performance liquid chromatography-tandem mass spectrometry. Tumor response was assessed every 6 weeks per RECIST v1.1,[16] recording objective response rate (ORR), disease control rate (DCR), duration of response (DOR), and progression-free survival (PFS) by dose level for all patients and for those harboring BRCA^mut+ tumors.

## O=C(c1cc(Cn2c(=O)[nH]c(=O)c3c(F)cccc32)ccc1F)N1CCN(c2ncccn2)CC1 [Senaparib]
120 mg QD n = 4
  TEAEs leading to death, patients: 0 n (%)
  TEAEs leading to dose discontinuation, events: 2 n ev
  TEAEs leading to dose discontinuation, patients: 1 (25.0) n (%)
  TEAEs leading to dose interruption, events: 3 n ev
  TEAEs leading to dose interruption, patients: 2 (50.0) n (%)
  TEAEs leading to dose reduction, events: 0 n ev
  TEAEs leading to dose reduction, patients: 0 n (%)
  TRAEs Grade ≥3, events: 6 n ev
  TRAEs Grade ≥3, patients: 3 (75.0) n (%)
  TRAEs, events: 47 n ev
  TRAEs, patients: 4 (100) n (%)
  Vomiting TRAE, All: 1 (25.0) n (%)
  Vomiting TRAE, Gr≥3: 0 n (%)
  WBC decreased TRAE, All: 4 (100) n (%)
  WBC decreased TRAE, Gr≥3: 0 n (%)
2-, 10-, 40-, and 60-mg dose groups
  Grade ≥3 TRAEs: no grade ≥3 TRAEs
120-mg dose group
  Grade ≥3 TRAEs, incidence (highest): 75.0%
2 mg QD n = 1
  ALT increased, All: 0 n (%)
  ALT increased, Gr≥3: 0 n (%)
  AST increased, All: 0 n (%)
  AST increased, Gr≥3: 0 n (%)
  Abdominal distension, All: 0 n (%)
  Abdominal distension, Gr≥3: 0 n (%)
  Anemia (incl. hemoglobin decreased), All: 0 n (%)
  Anemia (incl. hemoglobin decreased), Gr≥3: 0 n (%)
  Appetite decreased, All: 1 (100) n (%)
  Appetite decreased, Gr≥3: 0 n (%)
  Asthenia, All: 1 (100) n (%)
  Asthenia, Gr≥3: 0 n (%)
  Blood bilirubin increased, All: 0 n (%)
  Blood bilirubin increased, Gr≥3: 0 n (%)
  Blood creatinine increased, All: 0 n (%)
  Blood creatinine increased, Gr≥3: 0 n (%)
  Hypokalemia, All: 1 (100) n (%)
  Hypokalemia, Gr≥3: 0 n (%)
  Hyponatremia, All: 0 n (%)
  Hyponatremia, Gr≥3: 0 n (%)
  Nausea, All: 0 n (%)
  Nausea, Gr≥3: 0 n (%)
  Neutrophil count decreased, All: 0 n (%)
  Neutrophil count decreased, Gr≥3: 0 n (%)
  Pain in extremity, All: 0 n (%)
  Pain in extremity, Gr≥3: 0 n (%)
  Platelet count decreased, All: 0 n (%)
  Platelet count decreased, Gr≥3: 0 n (%)
  Protein in urine, All: 0 n (%)
  Protein in urine, Gr≥3: 0 n (%)
  Vomiting, All: 0 n (%)
  Vomiting, Gr≥3: 0 n (%)
  WBC decreased, All: 0 n (%)
  WBC decreased, Gr≥3: 0 n (%)
5 mg QD n = 3
  ALT increased, All: 0 n (%)
  ALT increased, Gr≥3: 0 n (%)
  AST increased, All: 0 n (%)
  AST increased, Gr≥3: 0 n (%)
  Abdominal distension, All: 1 (33.3) n (%)
  Abdominal distension, Gr≥3: 0 n (%)
  Anemia (incl. hemoglobin decreased), All: 2 (66.7) n (%)
  Anemia (incl. hemoglobin decreased), Gr≥3: 1 (33.3) n (%)
  Appetite decreased, All: 1 (33.3) n (%)
  Appetite decreased, Gr≥3: 0 n (%)
  Asthenia, All: 2 (66.7) n (%)
  Asthenia, Gr≥3: 0 n (%)
  Blood bilirubin increased, All: 1 (33.3) n (%)
  Blood bilirubin increased, Gr≥3: 0 n (%)
  Blood creatinine increased, All: 0 n (%)
  Blood creatinine increased, Gr≥3: 0 n (%)
  Hypokalemia, All: 0 n (%)
  Hypokalemia, Gr≥3: 0 n (%)
  Hyponatremia, All: 0 n (%)
  Hyponatremia, Gr≥3: 0 n (%)
  Nausea, All: 1 (33.3) n (%)
  Nausea, Gr≥3: 0 n (%)
  Neutrophil count decreased, All: 1 (33.3) n (%)
  Neutrophil count decreased, Gr≥3: 0 n (%)
  Pain in extremity, All: 1 (33.3) n (%)
  Pain in extremity, Gr≥3: 1 (33.3) n (%)
  Platelet count decreased, All: 2 (66.7) n (%)
  Platelet count decreased, Gr≥3: 0 n (%)
  Protein in urine, All: 0 n (%)
  Protein in urine, Gr≥3: 0 n (%)
  Vomiting, All: 0 n (%)
  Vomiting, Gr≥3: 0 n (%)
  WBC decreased, All: 1 (33.3) n (%)
  WBC decreased, Gr≥3: 0 n (%)
10 mg QD n = 3
  ALT increased, All: 1 (33.3) n (%)
  ALT increased, Gr≥3: 0 n (%)
  AST increased, All: 1 (33.3) n (%)
  AST increased, Gr≥3: 0 n (%)
  Abdominal distension, All: 0 n (%)
  Abdominal distension, Gr≥3: 0 n (%)
  Anemia (incl. hemoglobin decreased), All: 1 (33.3) n (%)
  Anemia (incl. hemoglobin decreased), Gr≥3: 0 n (%)
  Appetite decreased, All: 1 (33.3) n (%)
  Appetite decreased, Gr≥3: 0 n (%)
  Asthenia, All: 0 n (%)
  Asthenia, Gr≥3: 0 n (%)
  Blood bilirubin increased, All: 0 n (%)
  Blood bilirubin increased, Gr≥3: 0 n (%)
  Blood creatinine increased, All: 0 n (%)
  Blood creatinine increased, Gr≥3: 0 n (%)
  Hypokalemia, All: 0 n (%)
  Hypokalemia, Gr≥3: 0 n (%)
  Hyponatremia, All: 0 n (%)
  Hyponatremia, Gr≥3: 0 n (%)
  Nausea, All: 0 n (%)
  Nausea, Gr≥3: 0 n (%)
  Neutrophil count decreased, All: 0 n (%)
  Neutrophil count decreased, Gr≥3: 0 n (%)
  Pain in extremity, All: 0 n (%)
  Pain in extremity, Gr≥3: 0 n (%)
  Platelet count decreased, All: 0 n (%)
  Platelet count decreased, Gr≥3: 0 n (%)
  Protein in urine, All: 1 (33.3) n (%)
  Protein in urine, Gr≥3: 0 n (%)
  Vomiting, All: 0 n (%)
